# Assay results taken from patent US20220033397A1, “PHARMACEUTICAL COMPOUNDS AND THEIR USE AS INHIBITORS OF UBIQUITIN SPECIFIC PROTEASE 19 (USP19)” (ALMAC DISCOVERY LIMITED, priority 2018, published 2022).
# Molecular target: T1, Full-length USP19 (Homo sapiens, UniProt O94966)
# T1 construct: Full-length USP19 was purchased from Boston Biochem (E-576); purchased Boston Biochem E-576
# T1 sequence (O94966 1-1318): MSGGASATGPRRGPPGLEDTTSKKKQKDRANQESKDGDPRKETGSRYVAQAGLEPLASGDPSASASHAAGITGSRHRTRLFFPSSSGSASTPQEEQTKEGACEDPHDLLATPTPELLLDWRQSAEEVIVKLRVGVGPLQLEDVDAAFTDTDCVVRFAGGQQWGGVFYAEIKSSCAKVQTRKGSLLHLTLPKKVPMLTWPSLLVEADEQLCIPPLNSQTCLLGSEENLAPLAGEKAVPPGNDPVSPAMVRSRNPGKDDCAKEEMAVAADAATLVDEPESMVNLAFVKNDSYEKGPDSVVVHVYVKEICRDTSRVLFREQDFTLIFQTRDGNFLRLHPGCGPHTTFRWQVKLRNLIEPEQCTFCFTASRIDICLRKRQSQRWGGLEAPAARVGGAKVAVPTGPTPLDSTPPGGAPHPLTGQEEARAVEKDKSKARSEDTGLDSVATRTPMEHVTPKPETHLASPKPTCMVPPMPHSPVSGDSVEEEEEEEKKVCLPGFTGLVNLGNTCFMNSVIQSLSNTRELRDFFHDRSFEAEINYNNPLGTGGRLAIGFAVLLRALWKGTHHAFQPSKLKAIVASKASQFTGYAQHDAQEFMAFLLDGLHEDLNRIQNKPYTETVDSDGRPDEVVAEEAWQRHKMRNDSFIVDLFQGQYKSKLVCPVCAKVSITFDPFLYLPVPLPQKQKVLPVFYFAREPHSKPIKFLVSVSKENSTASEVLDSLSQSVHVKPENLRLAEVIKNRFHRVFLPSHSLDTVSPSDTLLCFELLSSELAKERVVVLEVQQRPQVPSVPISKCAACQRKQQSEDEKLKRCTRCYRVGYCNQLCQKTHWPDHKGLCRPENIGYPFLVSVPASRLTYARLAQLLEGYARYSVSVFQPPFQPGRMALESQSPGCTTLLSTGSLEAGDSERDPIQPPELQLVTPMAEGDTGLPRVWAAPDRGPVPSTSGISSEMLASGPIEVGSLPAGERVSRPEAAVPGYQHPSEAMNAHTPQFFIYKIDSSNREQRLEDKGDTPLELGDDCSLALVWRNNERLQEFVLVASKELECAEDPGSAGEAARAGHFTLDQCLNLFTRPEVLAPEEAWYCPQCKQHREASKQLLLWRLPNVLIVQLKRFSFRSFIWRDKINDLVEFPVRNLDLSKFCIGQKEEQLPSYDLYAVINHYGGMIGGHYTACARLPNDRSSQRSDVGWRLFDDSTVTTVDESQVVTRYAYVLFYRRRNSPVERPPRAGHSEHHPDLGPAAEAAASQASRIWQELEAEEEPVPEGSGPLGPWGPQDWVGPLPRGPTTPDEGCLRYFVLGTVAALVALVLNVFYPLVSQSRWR
# Test: USP19 fluorescence polarisation (FP) homogeneous assay with Ubiquitin-Lys-TAMRA substrate
# Type: biochemical
# Conditions: 2.5 nM USP19, 30 min pre-incubation, average of at least two duplicate experiments
# Description: Unless otherwise stated, all other reagents were purchased from Sigma. Enzymatic reactions were conducted in black flat bottom polystyrene 384-well plates (Nunc) and 30 μL total volume. […] Inhibitors were stored as 10 mM DMSO stocks in an inert environment (low humidity, dark, low oxygen, room temperature) using the Storage Pod System and serial dilutions were prepared in buffer just prior to the assay (from 200 μM to 2 μM, 8-18 data point curve).
# Following incubation at RT for 30 min, the enzymatic reactions were initiated by dispensing the Ub substrate (500 nM, 10 μL). FP was measured every 15 min over a period of 90 min (within the linear range of the assay) using a Synergy 4 plate reader (BioTek) exciting at 530 nm and measuring the amount of parallel and perpendicular light at 575 nm. The FP signal was subsequently normalised to the no compound control.
row,SMILES,IC50 [µM]
1,"C[C@H](CC1CCCCC1)C(=O)N1CCC(O)(Cn2cnc3[nH]ccc3c2=O)C2(CCCC2)C1 (stereo partly drawn) [Example 53, 3-((7-((R)-3-Cyclohexyl-2-methylpropanoyl)-10-hydroxy-7-azaspiro[4.5]decan-10-yl)methyl)-3,7-dihydro-4H-pyrrolo[2,3-d]pyrimidin-4-one]",5 to 50
2,"COc1ncc2c(=O)n(CC3(O)CCN(C(=O)[C@H](C)CC(F)(F)F)CC34CCCC4)ccc2n1 (stereo partly drawn) [Example 59, 6-((10-Hydroxy-7-((R)-4,4,4-trifluoro-2-methylbutanoyl)-7-azaspiro[4.5]decan-10-yl)methyl)-2-methoxypyrido[4,3-d]pyrimidin-5(6H)-one]",5 to 50
3,"C[C@H](CC(F)(F)F)C(=O)N1CCC(O)(Cn2ccc3nc(N4CCOCC4)ncc3c2=O)C2(CCCC2)C1 (stereo partly drawn) [Example 60, 6-((10-Hydroxy-7-((R)-4,4,4-trifluoro-2-methylbutanoyl)-7-azaspiro[4.5]decan-10-yl)methyl)-2-morpholinopyrido[4,3-d]pyrimidin-5(6H)-one]",0.5 to 5
4,"C[C@H](CC(F)(F)F)C(=O)N1CCC(O)(Cn2ccc3nc(N4CCN(C)CC4)ncc3c2=O)C2(CCCC2)C1 (stereo partly drawn) [Example 61, 6-((10-Hydroxy-7-((R)-4,4,4-trifluoro-2-methylbutanoyl)-7-azaspiro[4.5]decan-10-yl)methyl)-2-(4-methylpiperazin-1-yl)pyrido[4,3-d]pyrimidin-5(6H)-one]",0.5 to 5
5,"C[C@H](CC(F)(F)F)C(=O)N1CCC(O)(Cn2ccc3nc(N=S(C)(C)=O)ncc3c2=O)C2(CCCC2)C1 (stereo partly drawn) [Example 62, 2-((Dimethyl(oxo)-λ^6-sulfaneylidene)amino)-6-((10-hydroxy-7-((R)-4,4,4-trifluoro-2-methylbutanoyl)-7-azaspiro[4.5]decan-10-yl)methyl)pyrido[4,3-d]pyrimidin-5(6H)-one]",0.5 to 5

# The remaining lines, values ahead:
row,IC50 [µM],SMILES
1,0.5 to 5,"COc1cc2ncn(CC3(O)CCN(C(=O)[C@H](C)CC4CCCCC4)CC34CCCC4)c(=O)c2cc1OC (stereo partly drawn) [Example 52, 3-((7-((R)-3-Cyclohexyl-2-methylpropanoyl)-10-hydroxy-7-azaspiro[4.5]decan-10-yl)methyl)-6,7-dimethoxyquinazolin-4(3H)-one]"
2,< 0.5,"CSc1ncc2c(=O)n(CC3(O)CCN(C(=O)[C@H](C)CC4CCCCC4)CC34CCCC4)n(C)c2n1 (stereo partly drawn) [Example 54, 2-((7-((R)-3-Cyclohexyl-2-methylpropanoyl)-10-hydroxy-7-azaspiro[4.5]decan-10-yl)methyl)-1-methyl-6-(methylthio)-1,2-dihydro-3H-pyrazolo[3,4-d]pyrimidin-3-one]"
3,< 0.5,"CSc1ncc2c(=O)n(CC3(O)CCN(C(=O)[C@H](C)CC4CCCCC4)CC34CCCC4)ccc2n1 (stereo partly drawn) [Example 55, 6-((7-((R)-3-Cyclohexyl-2-methylpropanoyl)-10-hydroxy-7-azaspiro[4.5]decan-10-yl)methyl)-2-(methylthio)pyrido[4,3-d]pyrimidin-5(6H)-one]"
4,< 0.5,"CSc1ncc2c(=O)n(CC3(O)CCN(C(=O)[C@H](C)CC(F)(F)F)CC34CCCC4)ccc2n1 (stereo partly drawn) [Example 56, 6-((10-Hydroxy-7-((R)-4,4,4-trifluoro-2-methylbutanoyl)-7-azaspiro[4.5]decan-10-yl)methyl)-2-(methylthio)pyrido[4,3-d]pyrimidin-5(6H)-one]"
5,0.5 to 5,"CNc1ncc2c(=O)n(CC3(O)CCN(C(=O)[C@H](C)CC(F)(F)F)CC34CCCC4)ccc2n1 (stereo partly drawn) [Example 57, 6-((10-Hydroxy-7-((R)-4,4,4-trifluoro-2-methylbutanoyl)-7-azaspiro[4.5]decan-10-yl)methyl)-2-(methylamino)pyrido[4,3-d]pyrimidin-5(6H)-one]"
6,0.5 to 5,"C[C@H](CC(F)(F)F)C(=O)N1CCC(O)(Cn2ccc3nc(N(C)C)ncc3c2=O)C2(CCCC2)C1 (stereo partly drawn) [Example 58, 2-(Dimethylamino)-6-((10-hydroxy-7-((R)-4,4,4-trifluoro-2-methylbutanoyl)-7-azaspiro[4.5]decan-10-yl)methyl)pyrido[4,3-d]pyrimidin-5(6H)-one]"
